# Data published in patent US20100173983A1, “METHOD FOR INDUCING AUTOPHAGY” (priority 2007, published 2010).
# Assays:
# Format in all cases: cell-based, Human
# [1] = test system: R182 cells; test: Phase-contrast microscopy, vacuole formation; settings: 5 μg/ml over 4 hr and 8 hr
# Method: FIG. 6. Phase-contrast images of R182 cells treated with vehicle (NT) or 5 μg/ml Cpd 1 over 4 hr and 8 hr (A).
# R182 cells treated with Cpd 1 were observed microscopically to determine if morphological and structural alterations to cellular integrity took place. Cells treated with Cpd 1 were hyper-vacuolated (see FIG. 6) and the plasma membrane appeared to bleb or form folds. […] These morphological changes observed in Cpd 1 treated cells are considered the hall mark of autophagy with the increased vacuoles formation thought to result in autophagosomes which eventually fuse with lysosomes to form autolysosomes. These structures contain catabolic hydrolases which are released into the cytoplasm when the lysosomal membrane becomes compromised.
# [2] = test system: mTOR; test: Western blot of R-182 lysates, mTOR
# Source text: FIG. 10. The expression of upstream regulators of autophagy are also modulated in response to Cpd 1. […] B-actin was included as a loading control. B, Proposed mechanism of Cpd 1 induced autophagic cell death.
# (§1) After treatment with Cpd 1, protein was extracted from cells and measured as previously described (Kamsteeg et al., 2003). For separation of the cytoplasmic and mitochondrial fractions, cell pellets were processed using the ApoAlert Cell Fractionation kit (Promega) according to the manufacturer's instructions. 20 μg protein was denatured in sample buffer (2.5% sodium dodecyl sulfate [SDS], 10% glycerol, 5% β-mercapto-ethanol, 0.15 M Tris, pH 6.8, and 0.01% bromophenol blue) and subjected to 12% SDS polyacrylamide gel electrophoresis (SDS-PAGE) as previously described (Kamsteeg et al., 2003). The following antibodies and concentrations were used: mouse anti-Bax (BD Biosciences, 1:500), rabbit anti-actin (Sigma, 1:10,000), rabbit anti-cytochrome c (BD Biosciences, 1:1,000), mouse anti-Cox-4 (BD Biosciences, 1:500), rabbit anti-beclin 1 (Santa Cruz Biotechnology, 1:600), mouse anti LC3 (Nanotools, 1:500). […] Proteins were observed using enhanced chemiluminescence (Pierce, Rockford, Ill.).
# [3] = test system: cytochrome c; test: Western blot of R-182 cytoplasmic extracts, cytochrome c; settings: R-182 cells, 5 μg/ml over 8 hr
# Method: FIG. 9. Cpd 1-induced cell death involves cytochrome c translocation to the cytoplasm. R-182 cells treated with Cpd 1 (5 μg/ml) over 8 hr and the cytoplasmic and mitochondrial fractions were separated. […] Cox-4 was included to show the integrity of the mitochondrial preparation.
# as §1
# Cpd 1-induced cell death also involves cytochrome c translocation to the cytoplasm (FIG. 9). […]
# [4] = test system: ovarian cancer cells; test: Cell viability in presence of pan caspase inhibitor ZVAD-FMK; settings: ZVAD-FMK 0.5 μg/ml
# Method: FIG. 5. Comparative cell viability plots of dehydroequol (A) and Cpd 1 (B) treated cells in the presence and absence of the pan caspase inhibitor ZVAD-FMK (0.5 μg/ml).
# (§2) Cell viability was evaluated using the CellTiter 96 Aqueous One Solution Cell Proliferation Assay (Promega, Madison, Wis.) according to the manufacturer's instructions. The values from the treated cells were compared with the values generated from the untreated cells and reported as percent viability. Each experiment was performed in triplicate.
# [5] = test system: XIAP; test: Western blot of R-182 cells, XIAP; settings: 5 μg/ml over 24 hr
# Source text: FIG. 8. Molecular evidence of autophagic cell death in R-182 ovarian cancer cells induced by Cpd 1. […] B, Beclin 1 binds to Bcl-2. Immunoprecipitation study using mitochondrial preparations of cells pre-treated with Cpd 1 as stated in A, and subjected to beclin 1 immunoprecitation. Immunoprecipitated fractions were washed in PBS, subjected to SDS-PAGE, blotted and then probed with a mouse anti-Bcl-2 antibody. Actin and Topo-1 were used as loading control. C, Depolarized cells resulting from over-expression of Bax and Beclin 1 following administration of Cpd 1. Cells were treated with Cpd 1 as described in A, pelleted and washed in HBSS and the cell pellet resuspended in the reaction buffer for JC-1 (Biovision, Inc. MitoCapture™ K250-100). HBSS-washed cells were analysed by flow cytometry (λexcit=488 nm and (λemit=530 nm for green fluorescence (depolarized) or 590 nm for red fluorescence (polarized). 10,000 gated events were measured with a BD FACScalibur. Results were expressed as mean±standard deviation (n=3).
# After treatment with Cpd 1, protein was extracted from cells and measured as previously described (Kamsteeg et al., 2003). For separation of the cytoplasmic and mitochondrial fractions, cell pellets were processed using the ApoAlert Cell Fractionation kit (Promega) according to the manufacturer's instructions. […]
# [6] = test system: caspase 3; test: Caspase-Glo 3/7 assay in R182 cells; settings: R182 ovarian cancer explants; dose response and duration of exposure (5 μg/ml, 0-25 hr)
# Method: FIG. 2. Comparative induction of caspase 3 in R182 ovarian cancer explants by Cpd 1 and dehydroequol using either dose response (A) or duration of exposure (B). Caspase 3 activity was assessed using the Caspase-Glo 3/7 assays.
# (§3) For caspase activity assays, 10 μg of protein in 50 μL total volume was mixed with 50 μL of equilibrated Caspase-Glo 3/7, 8, or 9 reagents (Promega). After incubating at room temperature for 1 hour, luminescence was measured using TD 20/20 Luminometer (Turner Designs, Sunnyvale, Calif.). Blank values were subtracted and fold-increase in activity was calculated based on activity measured from untreated cells. Each sample was measured in triplicate.
# [7] = test system: CP70 (cell line), R179, R182, R585 (primary ovarian cancer explants); test: Cell viability, CellTiter 96 Aqueous One Solution Cell Proliferation Assay, ovarian cancer cells; settings: concentrations up to 10 μg/ml, 24 hr exposure
# Method: (§4) FIG. 1. Comparative cytotoxicity of dehydroequol and Compound I as described herein (Cpd 1) against normal and ovarian cancer cells: CP70 (cell line), R179, R182, R585 (primary ovarian cancer explants) and OSE (normal ovarian surface epithelial cells). […] Both compounds were tested at concentrations up to 10 μg/ml and exposed to cells for 24 hr.
# (§5) Human EOC cell lines A2780, CP70, and OSE were propagated in RPMI plus 10% fetal bovine serum (FBS) (Gemini Bio-Products, Woodland, Calif.) at 37° C. in a 5% CO2 atmosphere. Primary EOC cells (R179, R182, R585) were isolated from malignant ovarian ascites and cultured as previously described (Kamsteeg et al., 2003). Dehydroequol and Compound 1 (Cpd 1) were obtained from Novogen (Australia). All other reagents were purchased from Sigma Chemical (St. Louis, Mo.). The pan caspase inhibitor Z-VAD-FMK was obtained from R&D Systems (Minneapolis, Minn.).
# as §2
# [8] = test system: caspase 9; test: Caspase-Glo 9 assay in R182 cells; settings: R182 ovarian cancer explants; dose response and duration of exposure (5 μg/ml, 0-25 hr)
# Method: FIG. 3. Comparative induction of caspase 9 in R182 ovarian cancer explants by Cpd 1 and dehydroequol using either dose response (A) or duration of exposure (B). Caspase 9 activity was assessed using the Caspase-Glo 9 assay.
# as §3
# [9] = test system: OSE (normal ovarian surface epithelial cells); test: Cell viability, CellTiter 96 assay, normal cells; settings: concentrations up to 10 μg/ml, 24 hr exposure
# Method: as §4, §5, §2
structure (smiles),measurement,setting,value
"COc1ccc([C@H]2c3ccc(O)c(C)c3OC[C@H]2c2ccc(O)cc2)cc1 (stereo in doubt) [Cpd 1, 3-(4-hydroxyphenyl)-4-(4-methoxyphenyl)-8-methylchroman-7-ol]",vacuole formation,[1],vacuole formation is clearly evident
same,mTOR expression,"[2]; R-182 cells, 5 μg/ml",reduced up to 120 minutes post exposure
same,phosphorylated mTOR levels in soluble extracts of cells,"[2]; cells treated in vitro, compared to control",decreased
same,occurrence of cytochrome c in the cytoplasm,[3],increased over time
same,cell death in the presence of pan caspase inhibitor ZVAD-FMK,[4],cell death proceeded
same,XIAP expression,[5],remains unchanged
same,caspase 3 activity,[6],did not induce caspase 3 activity
same,cell viability of ovarian cancer cells,[7],decreased cell viability of all primary ovarian cancer cells
same,caspase 9 activity,[8],did not induce caspase 9 activity
same,toxicity against normal OSE cells,[9],some toxicity
